Test results taken from patent US8435978B2, “Substituted sulfonamide compounds” (Gruenenthal GmbH, priority 2006, dated 2013).
Where a name gives a salt, the structure may show the parent alone.

What was measured:
[1] = target: T1, human B1R receptor (Homo sapiens, UniProt P46663); assay: Functional study on the bradykinin receptor 1 (B1R), FLIPR Ca2+ assay, hB1R cells; assay type: cell-based; conditions: CHO-K1, test substance 10 μM, agonist Lys-Des-Arg9-bradykinin 0.5 nM, % inhibition compared with the maximum achievable inhibition, read-out: B1R Antagonism, human [10 μM] % Inhibition
T1 construct: host or cells: CHO K1 cells (Chinese hamster ovary), stably transfected
T1 sequence (P46663 1-353): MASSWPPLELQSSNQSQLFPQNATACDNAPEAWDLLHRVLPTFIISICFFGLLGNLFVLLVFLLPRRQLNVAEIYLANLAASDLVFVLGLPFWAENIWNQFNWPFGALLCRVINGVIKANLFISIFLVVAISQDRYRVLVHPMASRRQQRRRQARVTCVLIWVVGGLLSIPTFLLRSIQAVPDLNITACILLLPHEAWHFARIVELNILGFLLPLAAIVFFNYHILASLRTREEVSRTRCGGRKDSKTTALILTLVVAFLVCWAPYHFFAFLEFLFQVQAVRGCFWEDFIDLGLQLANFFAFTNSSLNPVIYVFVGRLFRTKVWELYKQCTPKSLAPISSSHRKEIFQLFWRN
How it was run: (§1)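 FLIPR Ca2+ assay in recombinant CHO K1 cells (human or rat B1R), Fluo-4 dye; 10 μM compound, 10 min, then EC-level agonist per species (0.5 nM Lys-Des-Arg9-BK human / 100 nM Des-Arg9-BK rat). Output: % inhibition vs maximum.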

[2] = target: T2, B1R receptor of the rat (Rattus norvegicus, UniProt P97583); assay: Functional study on the bradykinin receptor 1 (B1R), FLIPR Ca2+ assay, rB1R cells; assay type: cell-based; conditions: CHO-K1, test substance 10 μM, agonist Des-Arg9-bradykinin 100 nM, % inhibition compared with the maximum achievable inhibition, read-out: B1R Antagonism, rat [10 μM] % Inhibition
T2 construct: host or cells: CHO K1 cells (Chinese hamster ovary), stably transfected
T2 sequence (P97583 1-337): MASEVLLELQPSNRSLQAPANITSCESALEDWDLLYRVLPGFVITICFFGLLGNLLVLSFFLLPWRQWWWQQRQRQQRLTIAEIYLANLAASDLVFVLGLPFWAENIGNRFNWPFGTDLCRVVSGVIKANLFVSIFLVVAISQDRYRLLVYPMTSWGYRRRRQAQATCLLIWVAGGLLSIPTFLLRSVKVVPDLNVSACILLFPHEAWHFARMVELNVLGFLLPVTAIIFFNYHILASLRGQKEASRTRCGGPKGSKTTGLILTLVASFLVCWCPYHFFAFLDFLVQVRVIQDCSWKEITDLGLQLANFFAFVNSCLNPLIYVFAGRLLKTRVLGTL
How it was run: as §1

SMILES	inhibition at 10 µM [1] [%]	inhibition at 10 µM [2] [%]
COc1cc(C)c(S(=O)(=O)N2CCCC[C@H]2COCC(=O)N2CCC(Oc3ccncc3)CC2)c(C)c1 [Example 186, (S)-2-((1-(4-methoxy-2,6-dimethylphenylsulfonyl)piperidin-2-yl)methoxy)-1-(4-(pyridin-4-yloxy)piperidin-1-yl)ethanone hydrochloride]	106	97.1
O=C(COCC1CCCN1S(=O)(=O)c1c(Cl)cccc1Cl)N1CCN(Cc2ccc(Br)cc2)CC1 (stereo not shown) [Example 358, 1-(4-(4-bromobenzyl)piperazin-1-yl)-2-((1-(2,6-dichlorophenylsulfonyl)pyrrolidin-2-yl)methoxy)ethanone]	101	103
COc1cc(C)c(S(=O)(=O)N2Cc3ccccc3CC2COCC(=O)N2CCN(CC3CCN(C)CC3)CC2)c(C)c1C (stereo not shown) [Example 563, 2-((2-(4-methoxy-2,3,6-trimethylphenylsulfonyl)-1,2,3,4-tetrahydroisoquinolin-3-yl)methoxy)-1-(4-((1-methylpiperidin-4-yl)methyl)piperazin-1-yl)ethanone]	102	100
CN1CCC(N2CCN(C(=O)COCC3CCCCN3S(=O)(=O)c3cc(C(F)(F)F)ccc3C(F)(F)F)CC2)CC1 (stereo not shown) [Example 153, 2-((1-(2,5-bis(trifluoromethyl)phenylsulfonyl)piperidin-2-yl)methoxy)-1-(4-(1-methylpiperidin-4-yl)piperazin-1-yl)ethanone]	81.6	40.6
O=C(COCC1CCCCN1S(=O)(=O)c1ccc(Cl)c(Cl)c1)N1CCN(c2ccccc2)CC1 (stereo not shown) [Example 56, 2-[1-(3,4-dichloro-phenylsulfonyl)-piperidin-2-ylmethoxy]-1-(4-phenyl-piperazin-1-yl)-ethanone]	62.7	0
COc1cc(C)c(S(=O)(=O)N2CCCCC2COCC(=O)Nc2cc(-c3ccc(C)cc3)n[nH]2)c(C)c1 (stereo not shown) [Example 544, 2-((1-(4-methoxy-2,6-dimethylphenylsulfonyl)piperidin-2-yl)methoxy)-N-(3-p-tolyl-1H-pyrazol-5-yl)acetamide]	11.7	107
O=C(COCC1CCCN1S(=O)(=O)c1c(Cl)cccc1Cl)N1CCCCC1Cc1ccncc1 (stereo not shown) [Example 453, 2-((1-(2,6-dichlorophenylsulfonyl)pyrrolidin-2-yl)methoxy)-1-(2-(pyridin-4-ylmethyl)piperidin-1-yl)ethanone]	40.5	74.4
COc1cc(C)c(S(=O)(=O)N2CCCCC2COCC(=O)NCc2cccc(N3CCN(C)CC3)c2)c(C)c1 (stereo not shown) [Example 433, 2-((1-(4-methoxy-2,6-dimethylphenylsulfonyl)piperidin-2-yl)methoxy)-N-(3-(4-methylpiperazin-1-yl)benzyl)acetamide]	103	100
COc1cc(C)c(S(=O)(=O)N2CCCC2COCC(=O)NCc2ccccc2N2CCN(C)CC2)c(C)c1 (stereo not shown) [Example 473, 2-((1-(4-methoxy-2,6-dimethylphenylsulfonyl)pyrrolidin-2-yl)methoxy)-N-(2-(4-methylpiperazin-1-yl)benzyl)acetamide]	94.6	99.5
CN(C)c1ccc(CNC(=O)COCC2CCCCN2S(=O)(=O)c2c(Cl)cc(Cl)cc2Cl)cc1 (stereo not shown) [Example 578, N-(4-(dimethylamino)benzyl)-2-((1-(2,4,6-trichlorophenylsulfonyl)piperidin-2-yl)methoxy)acetamide]	8.96	87.1
COCCN1CCN(C(=O)COCC2Cc3ccccc3CN2S(=O)(=O)c2c(C)cc(C)cc2C)CC1 (stereo not shown) [Example 246, 2-((2-(mesitylsulfonyl)-1,2,3,4-tetrahydroisoquinolin-3-yl)methoxy)-1-(4-(2-methoxyethyl)piperazin-1-yl)ethanone]	56.4	72.1
